# Source: US20250243196A1, “CITRON KINASE INHIBITORS” (The Cleveland Clinic Foundation, priority 2021, published 2025)
# How the values were obtained:
# Assay type in all cases: biochemical
# [1] = target: SAPK3(h) (Homo sapiens (Human), UniProt P53778); experiment: KinaseProfiler panel; design: dose or concentration left out as unconfirmed; conditions: activity remaining
# [2] = target: VRK2(h) (Homo sapiens (Human), UniProt Q86Y07); experiment: KinaseProfiler panel; design: dose or concentration left out as unconfirmed; conditions: activity remaining
# [3] = target: TBK1(h) (Homo sapiens (Human), UniProt Q9UHD2); experiment: KinaseProfiler panel; conditions: activity remaining
# [4] = target: SIK3(h) (Homo sapiens (Human), UniProt Q9Y2K2); experiment: KinaseProfiler panel; design: dose or concentration left out as unconfirmed; conditions: activity remaining
# [5] = target: MLK3(h) (Homo sapiens (Human), UniProt Q16584); experiment: KinaseProfiler panel; design: dose or concentration left out as unconfirmed; conditions: activity remaining
# [6] = target: PRP4(h) (Homo sapiens (Human), UniProt Q13523); experiment: KinaseProfiler panel; design: dose or concentration left out as unconfirmed; conditions: activity remaining
# [7] = target: CaMKIγ(h) (Homo sapiens (Human), UniProt Q96NX5); experiment: KinaseProfiler panel; design: dose or concentration left out as unconfirmed; conditions: activity remaining
# [8] = target: TLK1(h) (Homo sapiens (Human), UniProt Q9UKI8); experiment: KinaseProfiler panel; conditions: activity remaining
# [9] = target: TSSK1(h) (Homo sapiens (Human), UniProt Q9BXA7); experiment: KinaseProfiler panel; design: dose or concentration left out as unconfirmed; conditions: activity remaining
# [10] = target: JAK1(h) (Homo sapiens (Human), UniProt P23458); experiment: KinaseProfiler panel; design: dose or concentration left out as unconfirmed; conditions: activity remaining
# [11] = target: CDK6/cyclinD3(h) (Homo sapiens (Human), UniProt Q00534); experiment: KinaseProfiler panel; design: dose or concentration left out as unconfirmed; conditions: activity remaining
# [12] = target: MST1(h) (Homo sapiens (Human), UniProt Q13043); experiment: KinaseProfiler panel; design: dose or concentration left out as unconfirmed; conditions: activity remaining
# [13] = target: Fms(h) (Homo sapiens (Human), UniProt P07333); experiment: KinaseProfiler panel; design: dose or concentration left out as unconfirmed; conditions: activity remaining
# [14] = target: TrkA(h) (Homo sapiens (Human), UniProt P04629); experiment: KinaseProfiler panel; design: dose or concentration left out as unconfirmed; conditions: activity remaining
# [15] = target: CDK18/cyclinY(h) (Homo sapiens (Human), UniProt Q07002); experiment: KinaseProfiler panel; design: dose or concentration left out as unconfirmed; conditions: activity remaining
# [16] = target: CaMKIIδ(h) (Homo sapiens (Human), UniProt Q13557); experiment: KinaseProfiler panel; design: dose or concentration left out as unconfirmed; conditions: activity remaining
# [17] = target: NUAK2(h) (Homo sapiens (Human), UniProt Q9H093); experiment: KinaseProfiler panel; design: dose or concentration left out as unconfirmed; conditions: activity remaining
# [18] = target: MAPKAP-K3(h) (Homo sapiens (Human), UniProt Q16644); experiment: KinaseProfiler panel; design: dose or concentration left out as unconfirmed; conditions: activity remaining
# [19] = target: ULK1(h) (Homo sapiens (Human), UniProt O75385); experiment: KinaseProfiler panel; design: dose or concentration left out as unconfirmed; conditions: activity remaining
# [20] = target: CDK13/cyclinK(h) (Homo sapiens (Human), UniProt Q14004); experiment: KinaseProfiler panel; design: dose or concentration left out as unconfirmed; conditions: activity remaining
# [21] = target: AAK1 (Homo sapiens (Human), UniProt Q2M2I8); experiment: KinaseProfiler radiometric assay (16-043KP); conditions: mean of at least two independent experiments
# From the text: (§1) In another aspect, disclosed is a method of inhibiting citron kinase in a sample, comprising contacting the sample with a compound described herein (e.g., a compound of formula (I) or a pharmaceutically acceptable salt thereof), or a pharmaceutical composition described herein (e.g., a pharmaceutical composition comprising a compound of formula (I) or a pharmaceutically acceptable salt thereof), in an amount effective to inhibit citron kinase. In some embodiments, the step of contacting the sample with the compound comprises administering the compound to a subject (e.g., a subject) suffering from cancer. Methods of determining kinase inhibition are well known in the art. For example, kinase activity of an enzyme and the inhibitory capacity of a test compound can be determined by measuring enzyme specific phosphorylation of a substrate. Commercial assays and kits can be employed. For example, kinase inhibition can be determined using a radiometric binding assay, such as using KinaseProfiler™ technology (Eurofins Discovery). This assay method directly detects product formation without the use of modified substrates or coupling enzymes. […]
# (§2) The effect of various compounds on the inhibition of other kinases has also been determined. Table 2 reports measured IC50 values; value units are nanomolar inhibition.
# [22] = target: PKCζ(h) (Homo sapiens (Human), UniProt Q05513); experiment: KinaseProfiler panel; design: dose or concentration left out as unconfirmed; conditions: activity remaining
# [23] = target: ICK(h) (Homo sapiens (Human), UniProt Q9UPZ9); experiment: KinaseProfiler panel; conditions: activity remaining
# [24] = target: PAK3(h) (Homo sapiens (Human), UniProt O75914); experiment: KinaseProfiler panel; design: dose or concentration left out as unconfirmed; conditions: activity remaining
# [25] = target: CaMKI(h) (Homo sapiens (Human), UniProt Q14012); experiment: KinaseProfiler panel; design: dose or concentration left out as unconfirmed; conditions: activity remaining
# [26] = target: BIKE (Homo sapiens (Human), UniProt Q9NSY1); experiment: KinaseProfiler radiometric assay (16-044KP); conditions: mean of at least two independent experiments
# From the text: as §1, §2
# Chain of SAPK3(h) (P53778 whole entry): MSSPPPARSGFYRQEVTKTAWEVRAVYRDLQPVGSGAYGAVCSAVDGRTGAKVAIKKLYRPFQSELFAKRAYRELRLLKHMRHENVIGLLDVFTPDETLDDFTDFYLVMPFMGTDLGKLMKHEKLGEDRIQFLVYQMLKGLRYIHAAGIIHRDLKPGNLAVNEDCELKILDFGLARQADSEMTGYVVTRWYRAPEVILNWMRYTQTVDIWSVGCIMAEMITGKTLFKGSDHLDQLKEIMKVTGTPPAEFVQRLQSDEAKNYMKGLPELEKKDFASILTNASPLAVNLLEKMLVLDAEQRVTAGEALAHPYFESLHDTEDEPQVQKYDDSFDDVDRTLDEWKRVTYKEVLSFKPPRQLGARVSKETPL
# Chain of NUAK2(h) (Q9H093 whole entry): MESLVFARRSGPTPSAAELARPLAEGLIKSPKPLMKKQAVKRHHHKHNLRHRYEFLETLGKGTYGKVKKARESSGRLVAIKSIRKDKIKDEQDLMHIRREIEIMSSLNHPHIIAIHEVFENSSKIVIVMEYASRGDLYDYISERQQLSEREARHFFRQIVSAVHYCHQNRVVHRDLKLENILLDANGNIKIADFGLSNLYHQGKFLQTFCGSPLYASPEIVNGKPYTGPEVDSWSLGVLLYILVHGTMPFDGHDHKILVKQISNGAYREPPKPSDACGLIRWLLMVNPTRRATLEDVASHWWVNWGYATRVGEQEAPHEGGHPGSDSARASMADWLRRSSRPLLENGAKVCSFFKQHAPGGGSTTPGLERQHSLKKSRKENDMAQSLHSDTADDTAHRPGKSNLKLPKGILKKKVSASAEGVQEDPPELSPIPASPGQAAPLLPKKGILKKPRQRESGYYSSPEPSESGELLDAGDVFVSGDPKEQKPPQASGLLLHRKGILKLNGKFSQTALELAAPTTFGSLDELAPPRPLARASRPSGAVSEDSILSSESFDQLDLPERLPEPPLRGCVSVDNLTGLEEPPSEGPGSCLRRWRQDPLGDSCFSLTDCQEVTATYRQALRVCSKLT
# Chain of TSSK1(h) (Q9BXA7 whole entry): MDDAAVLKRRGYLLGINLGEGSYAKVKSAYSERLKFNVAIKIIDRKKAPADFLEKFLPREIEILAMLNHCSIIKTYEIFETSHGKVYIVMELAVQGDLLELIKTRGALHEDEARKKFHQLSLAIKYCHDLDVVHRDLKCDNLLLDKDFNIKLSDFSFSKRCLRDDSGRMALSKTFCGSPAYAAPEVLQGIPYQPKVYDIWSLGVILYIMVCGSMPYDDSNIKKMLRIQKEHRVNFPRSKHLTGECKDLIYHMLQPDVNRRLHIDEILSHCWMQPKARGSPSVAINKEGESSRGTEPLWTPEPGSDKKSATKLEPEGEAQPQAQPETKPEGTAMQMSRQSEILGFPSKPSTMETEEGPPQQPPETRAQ
# Chain of PAK3(h) (O75914 whole entry): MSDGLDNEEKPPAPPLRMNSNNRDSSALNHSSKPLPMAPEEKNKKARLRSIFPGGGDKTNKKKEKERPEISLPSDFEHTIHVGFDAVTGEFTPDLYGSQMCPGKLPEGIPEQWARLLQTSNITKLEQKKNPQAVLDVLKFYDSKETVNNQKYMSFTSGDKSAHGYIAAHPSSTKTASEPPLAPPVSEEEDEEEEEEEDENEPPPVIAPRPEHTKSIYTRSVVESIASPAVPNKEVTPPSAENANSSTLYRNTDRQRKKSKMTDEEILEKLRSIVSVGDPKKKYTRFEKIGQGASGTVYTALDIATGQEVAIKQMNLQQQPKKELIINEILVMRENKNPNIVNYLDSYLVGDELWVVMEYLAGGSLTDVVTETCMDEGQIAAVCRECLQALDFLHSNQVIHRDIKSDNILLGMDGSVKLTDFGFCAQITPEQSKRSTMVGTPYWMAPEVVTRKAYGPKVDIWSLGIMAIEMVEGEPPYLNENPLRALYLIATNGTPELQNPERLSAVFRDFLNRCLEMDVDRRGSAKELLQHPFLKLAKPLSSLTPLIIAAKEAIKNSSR
# Chain of VRK2(h) (Q86Y07 whole entry): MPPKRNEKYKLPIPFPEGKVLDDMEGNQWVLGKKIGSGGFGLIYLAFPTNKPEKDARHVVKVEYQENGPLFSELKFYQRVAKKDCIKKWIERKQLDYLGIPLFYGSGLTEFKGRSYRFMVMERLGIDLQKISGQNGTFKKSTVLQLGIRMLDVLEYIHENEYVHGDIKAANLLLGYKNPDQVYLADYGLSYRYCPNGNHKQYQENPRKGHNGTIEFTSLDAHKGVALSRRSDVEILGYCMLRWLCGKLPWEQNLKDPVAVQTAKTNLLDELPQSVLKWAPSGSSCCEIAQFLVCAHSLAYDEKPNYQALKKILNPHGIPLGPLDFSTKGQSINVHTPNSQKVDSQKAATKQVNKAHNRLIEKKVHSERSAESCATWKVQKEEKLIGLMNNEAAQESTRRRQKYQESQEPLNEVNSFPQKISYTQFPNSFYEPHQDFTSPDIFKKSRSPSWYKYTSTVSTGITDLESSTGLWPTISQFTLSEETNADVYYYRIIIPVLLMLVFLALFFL
# Chain of CaMKIIδ(h) (Q13557 whole entry): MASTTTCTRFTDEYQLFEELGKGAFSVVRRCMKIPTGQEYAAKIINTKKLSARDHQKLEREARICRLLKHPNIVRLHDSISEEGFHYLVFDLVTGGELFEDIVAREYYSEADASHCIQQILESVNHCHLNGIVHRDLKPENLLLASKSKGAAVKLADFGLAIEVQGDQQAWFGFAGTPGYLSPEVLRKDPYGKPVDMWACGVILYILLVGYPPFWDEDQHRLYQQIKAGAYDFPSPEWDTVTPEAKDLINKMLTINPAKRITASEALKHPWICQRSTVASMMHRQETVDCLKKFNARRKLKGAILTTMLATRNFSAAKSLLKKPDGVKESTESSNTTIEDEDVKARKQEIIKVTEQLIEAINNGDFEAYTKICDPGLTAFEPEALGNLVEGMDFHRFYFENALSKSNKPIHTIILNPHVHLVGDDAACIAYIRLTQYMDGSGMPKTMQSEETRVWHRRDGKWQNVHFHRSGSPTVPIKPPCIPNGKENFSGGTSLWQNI
# Chain of MAPKAP-K3(h) (Q16644 whole entry): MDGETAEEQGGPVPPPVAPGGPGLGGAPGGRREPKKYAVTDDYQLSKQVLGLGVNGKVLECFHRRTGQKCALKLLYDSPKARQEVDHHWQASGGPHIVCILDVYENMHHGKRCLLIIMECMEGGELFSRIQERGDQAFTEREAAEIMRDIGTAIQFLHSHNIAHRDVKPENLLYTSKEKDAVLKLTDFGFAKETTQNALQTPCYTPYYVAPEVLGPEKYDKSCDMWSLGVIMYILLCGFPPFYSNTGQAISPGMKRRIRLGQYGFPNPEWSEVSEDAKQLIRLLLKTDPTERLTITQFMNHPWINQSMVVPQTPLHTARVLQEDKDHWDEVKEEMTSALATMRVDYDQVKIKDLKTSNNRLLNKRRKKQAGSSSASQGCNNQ
# Chain of CDK18/cyclinY(h) (Q07002 whole entry): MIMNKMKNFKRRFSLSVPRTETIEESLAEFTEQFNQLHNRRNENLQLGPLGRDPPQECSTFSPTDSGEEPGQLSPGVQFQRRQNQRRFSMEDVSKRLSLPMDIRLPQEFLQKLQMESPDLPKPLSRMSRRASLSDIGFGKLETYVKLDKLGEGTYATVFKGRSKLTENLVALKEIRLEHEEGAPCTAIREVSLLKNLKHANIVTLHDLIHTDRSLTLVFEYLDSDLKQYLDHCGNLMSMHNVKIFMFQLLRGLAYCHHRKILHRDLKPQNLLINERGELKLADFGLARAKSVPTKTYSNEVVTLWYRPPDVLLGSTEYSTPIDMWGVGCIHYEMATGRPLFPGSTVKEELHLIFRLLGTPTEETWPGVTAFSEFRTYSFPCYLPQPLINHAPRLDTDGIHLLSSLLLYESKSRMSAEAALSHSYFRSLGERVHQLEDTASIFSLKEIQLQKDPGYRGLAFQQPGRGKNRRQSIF
# Chain of CDK18/cyclinY(h) (Q8ND76 whole entry partner): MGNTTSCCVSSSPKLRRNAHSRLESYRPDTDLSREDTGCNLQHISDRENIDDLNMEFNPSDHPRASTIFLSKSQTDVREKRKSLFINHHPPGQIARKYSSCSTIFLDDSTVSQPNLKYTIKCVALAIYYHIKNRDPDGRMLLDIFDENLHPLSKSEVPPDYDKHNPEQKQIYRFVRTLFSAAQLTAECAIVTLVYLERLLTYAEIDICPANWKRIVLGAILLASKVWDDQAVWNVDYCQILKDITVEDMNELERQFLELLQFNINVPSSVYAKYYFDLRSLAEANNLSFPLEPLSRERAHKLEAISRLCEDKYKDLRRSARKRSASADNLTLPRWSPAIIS
# Chain of MST1(h) (Q13043 whole entry): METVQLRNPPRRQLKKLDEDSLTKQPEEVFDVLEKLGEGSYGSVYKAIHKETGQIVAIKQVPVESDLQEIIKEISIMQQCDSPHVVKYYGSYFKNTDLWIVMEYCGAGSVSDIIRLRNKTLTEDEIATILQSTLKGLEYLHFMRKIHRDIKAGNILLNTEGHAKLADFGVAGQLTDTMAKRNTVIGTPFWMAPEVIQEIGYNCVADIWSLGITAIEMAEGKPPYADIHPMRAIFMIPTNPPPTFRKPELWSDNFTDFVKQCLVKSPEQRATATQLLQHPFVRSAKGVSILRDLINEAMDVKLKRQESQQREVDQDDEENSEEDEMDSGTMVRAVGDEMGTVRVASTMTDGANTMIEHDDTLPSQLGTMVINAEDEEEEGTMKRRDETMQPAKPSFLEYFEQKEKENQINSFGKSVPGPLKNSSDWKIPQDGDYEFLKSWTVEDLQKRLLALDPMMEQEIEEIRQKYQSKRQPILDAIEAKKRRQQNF
smiles,measurement,setting,value
"Cc1cc2c(-c3ccc(NC(=O)[C@H](N)CC(C)(C)C)cc3C)ccnc2[nH]1 [Compound F-90, (2R)-2-Amino-4,4-dimethyl-N-[3-methyl-4-(2-methyl-1H-pyrrolo[2,3-b]pyridin-4-yl)phenyl]pentanamide]",% Activity,[1],113%
same,% Activity,[2],100%
same,% Activity,[3],100%
same,% Activity,[4],105%
same,% Activity,[5],91%
same,% Activity,[6],100%
same,% Activity,[7],110%
same,% Activity,[8],82%
same,% Activity,[9],116%
same,% Activity,[10],85%
same,% Activity,[11],90%
same,% Activity,[12],76%
same,% Activity,[13],115%
same,% Activity,[14],105%
same,% Activity,[15],94%
same,% Activity,[16],96%
same,% Activity,[17],72%
same,% Activity,[18],125%
same,% Activity,[19],95%
same,% Activity,[20],99%
same,IC50,[21],212 nM
same,% Activity,[22],88%
same,% Activity,[23],99%
same,% Activity,[24],89%
same,% Activity,[25],104%
same,IC50,[26],902 nM
